Assays:
[1] = target: EP4 receptor conformation sensor (Homo sapiens, UniProt P35408); assay: FRET-based EP4 receptor conformation sensor stably expressed in HEK293 cells (intact, saponin-permeabilized, membrane fragments); format: cell-based
Method: (§1) The cells were washed once with external buffer and subsequently incubated 2 minutes for single-cell FRET measurements or 10 minutes for BRET measurements in 0.05% saponin (AppliChem, Darmstadt, Germany) dissolved in internal buffer. Afterward, the cells were washed five times for single-cell FRET measurements or three times for BRET measurements with internal buffer.
(§2) HEK293 cells stably expressing the EP4 receptor, IP receptor, or DP2 receptor conformation sensor were seeded on 15 cm Ø dishes and grown until optical confluence. The cells were washed once with Dulbecco’s PBS (Capricorn Scientific GmbH), without Ca & Mg and Phenol Red (phosphate-buffered saline, PBS). After adding 5 ml PBS to the cells, the dish was treated with liquid nitrogen until the solution was visibly frozen. These dishes were stored at −80°C until the measurements were carried out. On the day of the measurement, the dishes were removed from the freezer and stored at room temperature until the buffer solution had thawed. The material was collected with a cell scraper and centrifuged (5000 rpm/5 min). The supernatant was discarded, the pellet containing the membrane fragments was resuspended with external buffer containing 0.1% BSA and seeded on microplates. […]

[2] = target: T1, EP2 receptor conformation sensor (Homo sapiens, UniProt P43116, DEL238-250); assay: FRET-based EP2 receptor conformation sensor, single-cell measurements in HEK293 cells; conditions: saponin-permeabilized cells, 3000 nM PGE2, reference 20 µM PGE2
T1 construct: mT2 insertion and truncation after Q349; expressed in transfected cells
Method: as §1
The coverslips loaded with stably transfected HEK293 cells containing either the FFA3 receptor, α2A-AR CAM, or ETB receptor conformation sensors were clamped in an Attofluor^TM cell chamber and were washed once with external buffer. Afterward, they were side by side either permeabilized or directly measured at room temperature by the use of an inverted microscope (Elipse Ti2, Nikon, Düsseldorf, Germany), equipped with a 100× oil immersion objective (Plan Apo λ 100 x/1.45 oil ∞/0.17 WD 0.13, Nikon, Düsseldorf, Germany) and dual excitation and dual emission imaging capabilities. […] The fluorescence emission of mT2 and the respective YFP variant was simultaneously collected by a second beamsplitter (488, Chroma, Bellows Falls, Vermont, U.S.A.) and two emission filters (mT2: 474/27, Chroma; YFP: 544/23, Chroma). […] For all single-cell FRET experiments, cells were prospectively selected based on a continuous plasma-membrane fluorescence rim and appropriate fluorescence distribution to ensure a PM-dominant receptor signal. […]

[3] = target: ETB receptor (wildtype) (human) (UniProt P24530)
S1P3 receptor = S1P3 receptor (Homo sapiens, UniProt Q99500); assay: BRET-based G protein activation, wildtype S1P3 receptor + Gαq biosensor in HEK293T cells; format: cell-based
Text: […] Afterward, the cells were washed five times for single-cell FRET measurements or three times for BRET measurements with internal buffer.
Concentration-response curves were fitted in GraphPad Prism 8 using nonlinear regression (log(agonist) vs. response - variable slope (four parameters)) with the hillslope set to 1, the bottom constrained to 0 and the top to 1 using the following equation: […]

DP2 receptor = target: T2, DP2 receptor (Homo sapiens, UniProt Q9Y5Y4); assay: BRET-based G protein activation, wildtype DP2 receptor + Gαo biosensor in HEK293T cells; format: cell-based
T2 construct: host or cells: HEK293T (transient)
T2 sequence (Q9Y5Y4 1-395): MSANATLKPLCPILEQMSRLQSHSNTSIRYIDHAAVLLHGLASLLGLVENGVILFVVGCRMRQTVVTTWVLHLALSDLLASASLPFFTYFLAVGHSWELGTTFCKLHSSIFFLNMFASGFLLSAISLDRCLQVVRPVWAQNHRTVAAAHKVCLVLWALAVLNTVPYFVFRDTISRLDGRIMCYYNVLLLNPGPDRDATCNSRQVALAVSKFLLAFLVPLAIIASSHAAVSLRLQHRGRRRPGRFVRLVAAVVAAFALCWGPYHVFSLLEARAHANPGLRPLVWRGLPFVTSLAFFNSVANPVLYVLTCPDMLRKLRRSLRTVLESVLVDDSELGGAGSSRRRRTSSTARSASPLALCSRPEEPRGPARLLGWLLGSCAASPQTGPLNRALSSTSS
Method: Two days before BRET measurements were performed, HEK293T cells were transiently transfected with 3 µg of cDNAs containing TP receptor, ETB receptor, DP2 receptor, or S1P3 receptor and 3 µg of cDNAs containing Gβ3-T2A-cpVenus-Gγ9-IRES-Gαq-NLuc or Gβ3-T2A-cpVenus-Gγ9-IRES-Gαo1-NLuc using linear 25 kDa PEI reagent (polyethylenimine, PolyScience Inc., Hirschberg an der Bergstraße, Germany). The ratio between DNA and PEI was 1:3, and 50 µl serum-free DMEM was added per 1 µg DNA. The same amount of serum-free DMEM was also added separately to the PEI solution. DNA-DMEM and PEI-DMEM mixtures were incubated for 5 minutes, followed by incubation of the final mixture for another 10 minutes. […]
Two days before the actual measurement, HEK293T cells were transiently transfected and seeded on microplates. […] The measurements were performed using a Spark 20M plate reader (Tecan) at 37°C. Initially, the cells were measured for the baseline emission ratio. After the baseline measurement, 20 µl of external or internal buffer containing differing concentrations of either U-46619, 4-Ala ET-1, PGD,2 or S1P or external or internal buffer alone were added to the cells and measured. […] The cells were measured from the top and the donor luminescence (NLuc) was recorded at 415 to 470 nm and the acceptor luminescence (cpVenus) at 520 to 590 nm. Data were recorded using SparkControl^TM software. […]

[4] = target: T3, DP2 receptor conformation sensor (Homo sapiens, UniProt Q9Y5Y4); assay: FRET-based DP2 receptor conformation sensor, multiple-cell measurements in HEK293 cells or membrane fragments
T3 sequence (Q9Y5Y4 1-231 limits assumed): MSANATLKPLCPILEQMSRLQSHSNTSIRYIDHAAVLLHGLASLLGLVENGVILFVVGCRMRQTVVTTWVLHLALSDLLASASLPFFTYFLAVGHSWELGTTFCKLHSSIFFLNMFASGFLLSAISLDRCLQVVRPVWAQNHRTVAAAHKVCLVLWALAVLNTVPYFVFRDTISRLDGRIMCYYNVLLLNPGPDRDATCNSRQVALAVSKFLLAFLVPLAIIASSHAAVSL
T3 sequence (Q9Y5Y4 248-308 limits assumed): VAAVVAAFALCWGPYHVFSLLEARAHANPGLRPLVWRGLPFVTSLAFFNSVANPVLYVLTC
Method: as §2, with “min).” for “min). The supernatant was discarded, the pellet containing the membrane fragments was resuspended with external buffer containing 0.1% BSA and seeded on microplates.”
Intact HEK293 cells stably expressing the EP4 receptor, IP receptor, or DP2 receptor conformation sensors were counted, adjusted to 100,000–120,000 cells per well, and seeded on poly-L-lysine coated microplates one day before measurement. […]
We used a Spark 20M plate reader (Tecan, Männedorf, Switzerland) for multiple-cell FRET measurements of intact cells or membrane fragments. The cells were measured from the bottom and the donor fluorescent protein (mT2) was excited at 430 nm. First, the cells were measured for the baseline emission ratio. […] The emitted donor fluorescence (mT2) and acceptor fluorescence (eYFP) were recorded at 485 nm and 535 nm, respectively. […]

[5] = target: T4, TP receptor conformation sensor (Homo sapiens, UniProt P21731); assay: FRET-based TP receptor conformation sensor, single-cell measurements in HEK293 cells; conditions: 1 µM U-46619, reference 8 µM U-46619
T4 sequence (P21731 1-311 limits assumed): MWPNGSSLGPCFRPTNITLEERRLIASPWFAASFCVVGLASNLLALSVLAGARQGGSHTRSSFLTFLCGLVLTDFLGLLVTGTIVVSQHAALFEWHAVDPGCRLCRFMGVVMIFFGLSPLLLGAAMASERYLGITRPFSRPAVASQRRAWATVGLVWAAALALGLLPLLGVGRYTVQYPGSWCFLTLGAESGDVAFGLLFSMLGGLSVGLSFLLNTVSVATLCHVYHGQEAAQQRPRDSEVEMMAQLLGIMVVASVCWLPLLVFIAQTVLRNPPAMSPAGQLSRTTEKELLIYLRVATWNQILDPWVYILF

[6] = saponin-permeabilized cells with 1 µM GTP

Chain of EP4 receptor conformation sensor (P35408 1-332 limits assumed): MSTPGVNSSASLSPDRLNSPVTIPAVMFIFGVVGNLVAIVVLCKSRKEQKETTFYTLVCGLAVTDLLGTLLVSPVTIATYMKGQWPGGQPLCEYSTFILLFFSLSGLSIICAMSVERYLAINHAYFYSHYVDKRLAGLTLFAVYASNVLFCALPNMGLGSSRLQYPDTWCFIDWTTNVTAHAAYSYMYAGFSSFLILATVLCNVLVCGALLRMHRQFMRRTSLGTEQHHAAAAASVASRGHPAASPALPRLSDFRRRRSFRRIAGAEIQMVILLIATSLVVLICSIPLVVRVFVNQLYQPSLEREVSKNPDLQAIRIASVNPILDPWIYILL
Chain of S1P3 receptor (Q99500 whole entry): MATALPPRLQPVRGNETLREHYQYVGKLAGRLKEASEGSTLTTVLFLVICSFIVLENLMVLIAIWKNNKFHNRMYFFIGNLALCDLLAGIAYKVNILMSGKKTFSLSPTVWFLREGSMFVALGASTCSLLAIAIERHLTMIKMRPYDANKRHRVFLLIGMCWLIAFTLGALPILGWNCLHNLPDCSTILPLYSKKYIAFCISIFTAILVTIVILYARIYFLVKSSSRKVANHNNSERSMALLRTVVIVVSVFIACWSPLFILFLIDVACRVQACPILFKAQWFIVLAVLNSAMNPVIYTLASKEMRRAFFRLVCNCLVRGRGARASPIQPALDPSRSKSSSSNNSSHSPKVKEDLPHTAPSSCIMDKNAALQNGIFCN
Chain of ETB receptor (wildtype) (human) (P24530 27-442): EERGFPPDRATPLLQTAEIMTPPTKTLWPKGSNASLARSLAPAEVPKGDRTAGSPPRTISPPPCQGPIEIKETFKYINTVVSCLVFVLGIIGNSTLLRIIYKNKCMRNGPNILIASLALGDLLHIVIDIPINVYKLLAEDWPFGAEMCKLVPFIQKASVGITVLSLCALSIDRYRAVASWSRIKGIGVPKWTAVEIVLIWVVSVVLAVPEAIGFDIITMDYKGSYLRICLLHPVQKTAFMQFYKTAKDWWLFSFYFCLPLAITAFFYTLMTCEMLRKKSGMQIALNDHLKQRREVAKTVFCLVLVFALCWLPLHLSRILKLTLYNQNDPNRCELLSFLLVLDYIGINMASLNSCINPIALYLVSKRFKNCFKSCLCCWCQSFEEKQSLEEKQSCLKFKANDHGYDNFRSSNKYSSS
T1 sequence (P43116 with tags, fused parts or gaps DEL238-250): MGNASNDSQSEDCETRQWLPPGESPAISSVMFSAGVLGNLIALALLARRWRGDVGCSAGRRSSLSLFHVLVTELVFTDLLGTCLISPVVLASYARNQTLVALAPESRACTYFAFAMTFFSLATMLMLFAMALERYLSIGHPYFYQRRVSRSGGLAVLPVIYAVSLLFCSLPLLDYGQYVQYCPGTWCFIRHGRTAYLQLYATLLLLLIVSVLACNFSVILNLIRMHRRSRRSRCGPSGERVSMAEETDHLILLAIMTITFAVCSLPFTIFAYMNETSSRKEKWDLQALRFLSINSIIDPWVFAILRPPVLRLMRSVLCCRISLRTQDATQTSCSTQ

Which activation at 0.3 µM ([1]; HEK293, read-out: normalized response to 10 times EC50) does the source give for `CCCCC[C@H](O)/C=C/[C@H]1[C@H](O)CC(=O)[C@@H]1C/C=C\CCCC(=O)O` [PGE2, (Z)-7-[(1R,2R,3R)-3-hydroxy-2-[(E,3S)-3-hydroxyoct-1-enyl]-5-oxocyclopentyl]hept-5-enoic acid] here?
Its activation at 0.3 µM is 53%.

What about the “response to 10 times EC50” value ([1]; saponin-permeabilized cells, internal buffer supplemented with 5 mM ATP and 25 µM GTP) of the same molecule?
Its value is 56% ± 1.

What about the “response to the test concentration normalized to saturating concentration” value ([1]; saponin-permeabilized cells, internal buffer, 300 nM PGE2, reference 20 µM PGE2) of the same molecule?
Its value is 56% ± 1.

And the “response to the test concentration normalized to saturating concentration” value [2]?
Its value is “about 51% ± 6”.

Which BRET-based Gαq biosensor activation in HEK293T cells, concentration-response to 4-Ala ET-1: change of agonist potency in saponin-permeabilized cells with 1 µM GTP against intact cells (Figure 4F) [3] does the source give for 4-Ala endothelin-1 (peptide) here?
The BRET-based Gαq biosensor activation in HEK293T cells, concentration-response to 4-Ala ET-1: change of agonist potency in saponin-permeabilized cells with 1 µM GTP against intact cells (Figure 4F) was 15 fold.

What does the source list for `CCCCCCCCCCCCC/C=C/[C@@H](O)[C@@H](N)COP(=O)(O)O` [S1P, Sphingosine-1-phosphate]?
EC50 (S1P3 receptor; intact HEK293T cells): 28.2 nM; EC50 (S1P3 receptor; [6]): 0.55 nM

With `CCCCC[C@H](O)/C=C/[C@H]1C(=O)C[C@H](O)[C@@H]1C/C=C\CCCC(=O)O` [PGD2, (Z)-7-[(1R,2R,5S)-5-hydroxy-2-[(E,3S)-3-hydroxyoct-1-enyl]-3-oxocyclopentyl]hept-5-enoic acid] as the molecule, how does the EC50 (DP2 receptor; intact HEK293T cells) read?
Its EC50 is 0.562 nM.

And the EC50 (DP2 receptor; [6])?
The EC50 was 20.4 nM.

And the “response to the agonist” value ([4]; intact cells)?
Its value is “strong response”.

What about the “response to the agonist” value ([4]; membrane fragments) of the same molecule?
Its value is “almost no response”.

`CCCCCC(O)/C=C/C1C2CC(CO2)C1C/C=C\CCCC(=O)O` (stereo not drawn) [U-46619, 9,11-dideoxy-9α,11α-methanoepoxy-prosta-5Z,13E-dien-1-oic acid] was tested. Which “response to the test concentration (about 10 times EC50) normalized to saturating concentration” value ([5]; intact cells) did it give?
The value was “full response”.

And the “response to the test concentration normalized to saturating concentration” value ([5]; saponin-permeabilized cells)?
The value was 59% ± 1.
